Reference: patent US8187882B2, “Multiple shoot proliferation and regeneration system for plants” (Monsanto Technology LLC, priority 2001, dated 2012)
Counter-ions that a name gives are not always drawn.

How the values were obtained:
[1] = test system: cotton embryos; assay: Multiple shoot formation from cotton embryos cultured on varying levels of dikegulac with 1 mg/L IAA and 1 mg/L BAP; assay type: cell-based
Procedure: Tissue culture: Embryo explants are cultured in media in a suitable culture vessel containing 500 mg/L sodium dikegulac (2,3:4,6-diisopropylidene-2-keto-1-gulonic acid), 1 mg/L IAA (indole-3-acetic acid), and 1 mg/L BA (N-6-benzyladenine) (herein after referred to as DIB media). Any common plant tissue culture media can be used, including, but not limited to, modified LP medium, DKW medium, GD1 medium, MS/B5 medium, or WPM medium. Embryo axes should be placed apical end up and basal end into the medium so that the radicle is beneath the medium surface. The explants are cultured axenically at approximately 25-28° C. under fluorescent lighting at about 10-50 μE PAR for a 16-hour photoperiod. Typically it takes 5-10 weeks for multiple shoots in cotton to develop to a useful size. Experiments were done to determine if the form of the dikegulac is important and to determine a minimum optimum level of dikegulac needed for multiple shoot formation. […] What is not captured in the numerical data in Table 3 is the overall phenotypic response of the cultures. The explants cultured on the MS/B5 medium contained a lot of callus tissue at the base and the cultures were yellowing. The cultures on GD1 contained only a minimal amount of callus but the yellowing of the regenerating tissues was present.

[2] = test system: cotton explants; assay: Early experiments with dikegulac sodium salt in the culture medium for cotton; assay type: cell-based; settings: 1000 mg/L incorporated into the culture medium
Procedure: Forms of dikegulac: Dikegulac comes in several forms, for example a sodium salt, Atrimmec™, and free add. Early experiments were done using 1000 mg/L of the sodium salt incorporated into the culture medium for cotton. […] Later tests reduced this to 500 mg/L for ease of shoot development. Sodium dikegulac (500 mg/L) was tested in all combinations with BAP (0, 1, and 5 mg/L) and IAA (0, 1, and 5 mg/L). For US upland cotton varieties, 500 mg/L dikegulac, 1 mg/L IAA and 1 mg/L BA is a particularly useful combination. Zeatin riboside (ZR) can be substituted for BA with good results. The cytokinin component can also be omitted with good results.

[3] = test system: cotton plants; assay: Morphology and fertility of cotton plants grown from elongated, rooted shoots produced with dikegulac; assay type: in vivo
Text: Elongation and rooting After multiple shoots are produced, individual shoots, epicotyls, or entire shoot clump developed on the explant are excised and subcultured on the basal medium used above (without the growth regulators, or with exogenous auxin) under the same temperature and light conditions. Table 4 is a comparison of many different formulations of dikegulac.

[4] = test system: DP50 cotton zygotic embryo explants; assay: Relative activity of different formulations of dikegulac on DP50 cotton zygotic embryo explants; assay type: cell-based; settings: cv DP50
Procedure: Any common plant tissue culture media can be used, including, but not limited to, modified LP medium, DKW medium, GD1 medium, MS/B5 medium, or WPM medium. Embryo axes should be placed apical end up and basal end into the medium so that the radicle is beneath the medium surface. The explants are cultured axenically at approximately 25-28° C. under fluorescent lighting at about 10-50 μE PAR for a 16-hour photoperiod. Typically it takes 5-10 weeks for multiple shoots in cotton to develop to a useful size. Table 4 is a comparison of many different formulations of dikegulac.

[5] = MS/B5 medium, dikegulac 500 mg/L
[6] = Study 1, 500 mg/L, liquid DIB medium
[7] = MS/B5 medium, dikegulac 200 mg/L
[8] = MS/B5 medium, dikegulac 300 mg/L
[9] = Study 1, 500 mg/L, solid DIB medium
[10] = Study 2, 500 mg/L, solid DIB medium

For `CC1(C)OC[C@@H]2O[C@@]3(C(=O)O)OC(C)(C)O[C@H]3[C@@H]2O1` [dikegulac (sodium salt), 2,3:4,6-diisopropylidene-2-keto-1-gulonic acid], the “# Responding, multiple shoots” value ([1]; GD1 medium, dikegulac 500 mg/L) was 35/50, the “# Responding, multiple shoots” value [1, 5] was 39/50 and the “Response of cotton explants” value [2] was “swelling, enlarged meristems, and adventitious-like leaf primordia, but the explants did not easily grow out”. The “Fertility of plants developed from elongated, rooted shoots” value [3] was 100% and the “Morphology of plants developed from elongated, rooted shoots” value [3] was “morphologically normal”.
`CC1(C)OC[C@@H]2O[C@@]3(C(=O)[O-])OC(C)(C)O[C@H]3[C@@H]2O1.[Na+]` [RJK-D] was tested, and the “Extra buds per viable explant” value [4, 6] was 3.3, the “No. non-viable Explants” value [4, 6] was 11 and the “Percent Responding” value [4, 6] was 82%.
In the case of `CC1(C)OC[C@@H]2O[C@@]3(C(=O)O)OC(C)(C)O[C@H]3[C@@H]2O1` [dikegulac (acid form), 2,3:4,6-di-o-isopropylidene-2-keto-L-gulonic add], the “# Responding, single shoots” value ([1]; GD1 medium, dikegulac 100 mg/L) is reported as 39/50, the “# Responding, multiple shoots” value ([1]; GD1 medium, dikegulac 200 mg/L) is reported as 21/50 and the “# Responding, single shoots” value ([1]; GD1 medium, dikegulac 200 mg/L) is reported as 22/50. The “# Responding, multiple shoots” value ([1]; GD1 medium, dikegulac 300 mg/L) was 33/50, the “# Responding, single shoots” value ([1]; GD1 medium, dikegulac 300 mg/L) was 10/50 and the “# Responding, multiple shoots” value ([1]; GD1 medium, dikegulac 400 mg/L) was 37/50. For the same compound, the “# Responding, multiple shoots” value ([1]; GD1 medium, dikegulac 500 mg/L) was 40/50, the “# Responding, single shoots” value ([1]; MS/B5 medium, dikegulac 100 mg/L) was 36/50 and the “# Responding, multiple shoots” value [1, 7] was 38/50. For the same compound, the “# Responding, single shoots” value [1, 7] was 9/50, the “# Responding, multiple shoots” value [1, 8] was 41/50 and the “# Responding, single shoots” value [1, 8] was 3/50. The “# Responding, multiple shoots” value ([1]; MS/B5 medium, dikegulac 400 mg/L) was 40/50, the “# Responding, multiple shoots” value [1, 5] was 38/50 and the “Extra buds per viable explant” value [4, 6] was 3.4. For the same compound, the “No. non-viable Explants” value [4, 6] was 16, the “Percent Responding” value [4, 6] was 67% and the “Extra buds per viable explant” value [4, 9] was 3.8. For the same compound, the “No. non-viable Explants” value [4, 9] was 8, the “Percent Responding” value [4, 9] was 87% and the “Extra buds per viable explant” value [4, 10] was 4.2. The “No. non-viable Explants” value [4, 10] was 1, the “Percent Responding” value [4, 10] was 96% and the “Fertility of plants developed from elongated, rooted shoots” value [3] was 100%. The “Morphology of plants developed from elongated, rooted shoots” value [3] was “morphologically normal”.
For `CC1(C)OC[C@@H]2O[C@@]3(C(=O)[O-])OC(C)(C)O[C@H]3[C@@H]2O1.[Na+]` [D4043], the “Extra buds per viable explant” value [4, 6] was 3.9, the “No. non-viable Explants” value [4, 6] was 16 and the “Percent Responding” value [4, 6] was 84%. The “Extra buds per viable explant” value [4, 9] was 3.4, the “No. non-viable Explants” value [4, 9] was 5 and the “Percent Responding” value [4, 9] was 92%. For the same compound, the “Extra buds per viable explant” value [4, 10] was 4.1, the “No. non-viable Explants” value [4, 10] was 8 and the “Percent Responding” value [4, 10] was 83%.
`CC1(C)OC[C@@H]2O[C@@]3(C(=O)[O-])OC(C)(C)O[C@H]3[C@@H]2O1.[Na+]` [RJK-H] was tested, and the “Extra buds per viable explant” value [4, 9] was 3.7, the “No. non-viable Explants” value [4, 9] was 9 and the “Percent Responding” value [4, 9] was 85%. The “Extra buds per viable explant” value ([4]; Study 3, 400) was 1.9, the “No. non-viable Explants” value ([4]; Study 3, 400) was 20 and the “Percent Responding” value ([4]; Study 3, 400) was 75%. The “Extra buds per viable explant” value ([4]; Study 3, 500) was 3.0, the “No. non-viable Explants” value ([4]; Study 3, 500) was 17 and the “Percent Responding” value ([4]; Study 3, 500) was 79%. The “Extra buds per viable explant” value ([4]; Study 3, 600) was 3.4, the “No. non-viable Explants” value ([4]; Study 3, 600) was 24 and the “Percent Responding” value ([4]; Study 3, 600) was 70%. For the same compound, the “Extra buds per viable explant” value ([4]; Study 3, 700) was 3.1, the “No. non-viable Explants” value ([4]; Study 3, 700) was 33 and the “Percent Responding” value ([4]; Study 3, 700) was 59%.
`CC1(C)OC[C@@H]2O[C@@]3(C(=O)[O-])OC(C)(C)O[C@H]3[C@@H]2O1.[Na+]` [Q2161] was tested, and the “Extra buds per viable explant” value [4, 6] was 3.5, the “No. non-viable Explants” value [4, 6] was 20 and the “Percent Responding” value [4, 6] was 64%. For the same compound, the “Extra buds per viable explant” value [4, 9] was 2.9, the “No. non-viable Explants” value [4, 9] was 9 and the “Percent Responding” value [4, 9] was 85%.
